Test [1] addresses T1, Human CD73 (amino acid residues 27-549) (Homo sapiens, UniProt P21589).
T1 construct: Human CD73 (amino acid residues 27-549); His tag (N); made in house; host or cells: E. coli
T1 sequence (P21589 27-549): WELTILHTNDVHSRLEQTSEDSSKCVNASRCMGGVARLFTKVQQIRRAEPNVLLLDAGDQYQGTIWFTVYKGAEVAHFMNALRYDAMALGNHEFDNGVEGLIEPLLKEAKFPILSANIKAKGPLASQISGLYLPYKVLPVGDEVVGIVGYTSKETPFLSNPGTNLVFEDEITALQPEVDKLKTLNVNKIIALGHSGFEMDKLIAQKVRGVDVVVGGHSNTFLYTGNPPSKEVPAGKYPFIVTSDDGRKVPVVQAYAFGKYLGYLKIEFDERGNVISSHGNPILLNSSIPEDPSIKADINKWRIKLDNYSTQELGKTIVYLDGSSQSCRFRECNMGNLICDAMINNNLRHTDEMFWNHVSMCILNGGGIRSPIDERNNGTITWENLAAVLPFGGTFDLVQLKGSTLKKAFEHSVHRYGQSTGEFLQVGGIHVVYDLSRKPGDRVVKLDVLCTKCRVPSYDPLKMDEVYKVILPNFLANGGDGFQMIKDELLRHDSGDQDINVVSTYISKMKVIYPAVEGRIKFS
The experiment in a line: CD73 enzymatic assay (luciferase-based indirect assay, CellTiter-Glo). It counts as biochemical. The conditions noted are these: 0.4 nM CD73, 150 μM AMP, 1 hour at room temperature. The essentials:
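Luciferase-coupled readout: AMP left after CD73 turnover suppresses CellTiter-Glo signal (1 μM ATP final, 30 min RT). Reaction beforehand: 150 μM AMP, 0.4 nM E. coli-made His-tagged CD73 residues 27-549, test compound, HEPES pH 7.4 with Tween-20, 1 h RT. % inhibition fitted nonlinearly for IC50.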
On the technique in general: In ATP-based viability assays light output follows the ATP content of the culture.

For a further test, the target named is T2, human CD73 (Homo sapiens, UniProt P21589).
T2 construct: expressed in transfected cells
T2 sequence (P21589 27-549): T1 sequence (P21589 27-549)
The experiment in a line: Inhibitor activity against CD73 in cell based assay (CD73 expressing CHO-K1 cells). The conditions noted are these: CHO-K1 cells expressing human CD73, 150 μM AMP, 4 hours of incubation; read-out: CHO-K1 CELL_VARIANT: CD73 IC50. The essentials:
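AMP (150 μM) was added alongside 8 titrated compound doses (maximum 10 μM, 1:3 steps) to CHO-K1 cells stably expressing human CD73. After 4 h, supernatant AMP was measured indirectly with CellTiter-Glo 2.0 plus 1 μM ATP (30 min, RT). % inhibition versus high and low controls was fitted nonlinearly for IC50.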

SMILES strings stand for the structures.

This passage reports IC50 results from patent US12202818B2, “Compounds and methods for CD73 modulation and indications therefor” (Opna Bio SA, priority 2020, dated 2025).

For the molecule `Cc1nn(C(F)F)c(C)c1-c1ccnc(O[C@@H]2CCN(c3cn[nH]c(=O)c3Cl)C2)c1` [P-0170, (R)-4-chloro-5-(3-((4-(1-(difluoromethyl)-3,5-dimethyl-1H-pyrazol-4-yl)pyridin-2-yl)oxy)pyrrolidin-1-yl)pyridazin-3(2H)-one], the IC50 (in test [1]; on human CD73) was 0.001 to 10 µM in each case.
As for `Cc1nn(C)c(C)c1-c1cc(O[C@@H]2CCN(c3cn[nH]c(=O)c3Cl)C2)ncc1F` [P-0171, (R)-4-chloro-5-(3-((5-fluoro-4-(1,3,5-trimethyl-1H-pyrazol-4-yl)pyridin-2-yl)oxy)pyrrolidin-1-yl)pyridazin-3(2H)-one], the IC50 (in test [1]; on human CD73) was 0.001 to 10 µM each time.
Regarding `Cc1nnn(C)c1-c1cc(F)nc(O[C@@H]2CCN(c3cn[nH]c(=O)c3Cl)C2)c1` [P-0172, (R)-4-chloro-5-(3-((4-(1,4-dimethyl-1H-1,2,3-triazol-5-yl)-6-fluoropyridin-2-yl)oxy)pyrrolidin-1-yl)pyridazin-3(2H)-one], the IC50 (in test [1]; at human CD73) was 0.001 to 10 µM throughout.
Consider `Cn1cncc1-c1cc(F)nc(O[C@@H]2CCN(c3cn[nH]c(=O)c3Cl)C2)c1` [P-0173, (R)-4-chloro-5-(3-((6-fluoro-4-(1-methyl-1H-imidazol-5-yl)pyridin-2-yl)oxy)pyrrolidin-1-yl)pyridazin-3(2H)-one], for which the IC50 (in test [1]; on human CD73) was 0.001 to 10 µM in each case.
As to `Cc1nc(C)c(-c2cc(F)nc(O[C@@H]3CCN(c4cn[nH]c(=O)c4Cl)C3)c2)s1` [P-0174, (R)-4-chloro-5-(3-((4-(2,4-dimethylthiazol-5-yl)-6-fluoropyridin-2-yl)oxy)pyrrolidin-1-yl)pyridazin-3(2H)-one], the IC50 (in test [1]; on human CD73) was 0.001 to 10 µM throughout.
For the molecule `Cc1cnn(C)c1-c1cc(F)nc(O[C@@H]2CCN(c3cn[nH]c(=O)c3Cl)C2)c1` [P-0175, (R)-4-chloro-5-(3-((4-(1,4-dimethyl-1H-pyrazol-5-yl)-6-fluoropyridin-2-yl)oxy)pyrrolidin-1-yl)pyridazin-3(2H)-one], the IC50 (in test [1]; on human CD73) was 0.001 to 10 µM in each case.
For `Cc1noc(C)c1-c1ccnc(O[C@@H]2CCN(c3cnn(CCO)c(=O)c3Cl)C2)c1` [P-0176, (R)-4-chloro-5-(3-((4-(3,5-dimethylisoxazol-4-yl)pyridin-2-yl)oxy)pyrrolidin-1-yl)-2-(2-hydroxyethyl)pyridazin-3(2H)-one], the 50% inhibitory concentration (IC50) (in test [1]; on human CD73) was 0.001 to 10 µM throughout.
For the molecule `Cc1noc(C)c1-c1ccnc(O[C@H]2CN(c3cnn(CCO)c(=O)c3Cl)C[C@@H]2F)c1` [P-0177, 4-chloro-5-((3S,4S)-3-((4-(3,5-dimethylisoxazol-4-yl)pyridin-2-yl)oxy)-4-fluoropyrrolidin-1-yl)-2-(2-hydroxyethyl)pyridazin-3(2H)-one], the IC50 (in test [1]; on human CD73) was 0.001 to 10 µM each time.
For the molecule `Cc1noc(C)c1-c1cc(O[C@@H]2CCN(c3cnn(CCO)c(=O)c3Cl)C2)ncn1` [P-0178, (R)-4-chloro-5-(3-((6-(3,5-dimethylisoxazol-4-yl)pyrimidin-4-yl)oxy)pyrrolidin-1-yl)-2-(2-hydroxyethyl)pyridazin-3(2H)-one], the IC50 (in test [1]; on human CD73) was 0.001 to 10 µM in each case.
As to `Cc1noc(C)c1-c1ccnc(O[C@H]2CN(c3cn[nH]c(=O)c3Cl)C[C@@H]2F)c1` [P-0180, 4-chloro-5-((3S,4S)-3-((4-(3,5-dimethylisoxazol-4-yl)pyridin-2-yl)oxy)-4-fluoropyrrolidin-1-yl)pyridazin-3(2H)-one], the IC50 (in test [1]; at human CD73) was 0.001 to 10 µM in each case.
As for `Cc1nn(C)c(C)c1-c1cc(O[C@@H]2CCN(c3cn[nH]c(=O)c3Cl)C2)ncn1` [P-0181, (R)-4-chloro-5-(3-((6-(1,3,5-trimethyl-1H-pyrazol-4-yl)pyrimidin-4-yl)oxy)pyrrolidm-1-yl)pyridazin-3(2H)-one], the IC50 (in test [1]; on human CD73) was 0.001 to 10 µM in each case.
For the molecule `Cc1noc(C)c1-c1cc(O[C@@H]2CCN(c3cn[nH]c(=O)c3Cl)C2)ncn1` [P-0182, (R)-4-chloro-5-(3-((6-(3,5-dimethylisoxazol-4-yl)pyrimidin-4-yl)oxy)pyrrolidin-1-yl)pyridazin-3(2H)-one], the IC50 (in test [1]; at human CD73) was 0.001 to 10 µM in each case.
For the molecule `Cc1nn(CC2CCC2)c(C)c1-c1cc(F)nc(O[C@@H]2CCN(c3cn[nH]c(=O)c3Cl)C2)c1` [P-0183, (R)-4-chloro-5-(3-((4-(1-(cyclobutylmethyl)-3,5-dimethyl-1H-pyrazol-4-yl)-6-fluoropyridin-2-yl)oxy)pyrrolidin-1-yl)pyridazin-3(2H)-one], the IC50 (in test [1]; on human CD73) was 0.001 to 10 µM each time.
Regarding `Cc1nn(CC2(C)COC2)c(C)c1-c1cc(F)nc(O[C@@H]2CCN(c3cn[nH]c(=O)c3Cl)C2)c1` [P-0184, (R)-4-chloro-5-(3-((4-(3,5-dimethyl-1-((3-methyloxetan-3-yl)methyl)-1H-pyrazol-4-yl)-6-fluoropyridin-2-yl)oxy)pyrrolidin-1-yl)pyridazin-3(2H)-one], the half-inhibitory concentration (IC50) (in test [1]; on human CD73) was 0.001 to 10 µM in each case.
For `Cc1nn(CC(C)(CO)CCl)c(C)c1-c1cc(F)nc(O[C@@H]2CCN(c3cn[nH]c(=O)c3Cl)C2)c1` (stereo partly drawn) [P-0185, 4-chloro-5-((3R)-3-((4-(1-(3-chloro-2-(hydroxymethyl)-2-methylpropyl)-3,5-dimethyl-1H-pyrazol-4-yl)-6-fluoropyridin-2-yl)oxy)pyrrolidin-1-yl)pyridazin-3(2H)-one], the IC50 (in test [1]; on human CD73) was 0.001 to 10 µM in each case.
Turning to `Cc1nn(CC(C)(C)O)c(C)c1-c1cc(F)nc(O[C@@H]2CCN(c3cn[nH]c(=O)c3Cl)C2)c1` [P-0186, (R)-4-chloro-5-(3-((6-fluoro-4-(1-(2-hydroxy-2-methylpropyl)-3,5-dimethyl-1H-pyrazol-4-yl)pyridin-2-yl)oxy)pyrrolidin-1-yl)pyridazin-3(2H)-one], the IC50 (in test [1]; on human CD73) was 0.001 to 10 µM throughout.
As to `Cc1nn(CC2CC(F)(F)C2)c(C)c1-c1cc(F)nc(O[C@@H]2CCN(c3cn[nH]c(=O)c3Cl)C2)c1` [P-0187, (R)-4-chloro-5-(3-((4-(1-((3,3-difluorocyclobutyl)methyl)-3,5-dimethyl-1H-pyrazol-4-yl)-6-fluoropyridin-2-yl)oxy)pyrrolidin-1-yl)pyridazin-3(2H)-one], the IC50 (in test [1]; on human CD73) was 0.001 to 10 µM in each case.
On to `Cc1noc(C)c1-c1cc(F)nc(O[C@H]2CN(c3cnn(CCO)c(=O)c3Cl)C[C@@H]2F)c1` [P-0188, 4-chloro-5-((3S,4S)-3-((4-(3,5-dimethylisoxazol-4-yl)-6-fluoropyridin-2-yl)oxy)-4-fluoropyrrolidin-1-yl)-2-(2-hydroxyethyl)pyridazin-3(2H)-one], for which the IC50 (in test [1]; at human CD73) was 0.001 to 10 µM throughout.
`Cc1noc(C)c1-c1cc(F)nc(O[C@H]2CN(c3cn[nH]c(=O)c3Cl)C[C@@H]2F)c1` [P-0189, 4-chloro-5-((3S,4S)-3-((4-(3,5-dimethylisoxazol-4-yl)-6-fluoropyridin-2-yl)oxy)-4-fluoropyrrolidin-1-yl)pyridazin-3(2H)-one]: the IC50 (in test [1]; at human CD73) was 0.001 to 10 µM throughout.

The term IC50 denotes the concentration that gives 50% inhibition.
